Laboratory results from ChEMBL document CHEMBL3526022, “Which metabolites circulate?” (Drug Metab Dispos, 2013).
Structures can show the parent of a compound that is named as a salt.

Assays:
[1] = test system: Homo sapiens; assay: Unbound hepatobiliary clearance in human treated with dilitiazem at 120 mg, po; format: ADME, organism-based; details: in vivo
[2] = species on record: Homo sapiens; assay: Unbound hepatobiliary clearance in human treated with darifenacin; format: ADME, organism-based; details: in vivo
[3] = species on record: Homo sapiens; assay: Unbound renal clearance in human treated with darifenacin; format: ADME, organism-based, Kidney; details: in vivo
[4] = physchem
[5] = species on record: Homo sapiens; assay: Unbound renal clearance in human treated with propranolol; format: ADME, organism-based, Kidney; details: in vivo
[6] = Systemic clearance in human treated with propranolol; format: ADME, organism-based; details: in vivo
[7] = species on record: Homo sapiens; assay: Unbound hepatobiliary clearance in human treated with propranolol; format: ADME, organism-based; details: in vivo
[8] = Fraction unbound in human treated with propranolol; format: ADME, organism-based; details: in vivo
[9] = Fraction unbound in healthy human treated with chlorpromazine at 10 mg, iv bolus dose and 25, 50 and 100 mg, po; format: ADME, organism-based; details: in vivo
[10] = Systemic clearance in healthy human treated with chlorpromazine at 10 mg, iv bolus dose and 25, 50 and 100 mg, po; format: ADME, organism-based; details: in vivo
[11] = test system: Homo sapiens; assay: Unbound hepatobiliary clearance in healthy human treated with chlorpromazine at 10 mg, iv bolus dose and 25, 50 and 100 mg, po; format: ADME, organism-based; details: in vivo
[12] = test system: Homo sapiens; assay: Unbound renal clearance in healthy human treated with chlorpromazine at 10 mg, iv bolus dose and 25, 50 and 100 mg, po; format: ADME, organism-based, Kidney; details: in vivo
[13] = Clearance in iv dosed patient with renal impairment; format: ADME, organism-based; details: human, in vivo
[14] = clinical; details: human, in vivo, iv
[15] = Fraction unbound in healthy human at 10 mg, iv bolus dose and 25, 50 and 100 mg, po; format: ADME, organism-based; details: in vivo
[16] = species on record: Homo sapiens; details: in vivo
[17] = species on record: Homo sapiens; details: in vivo; remark: listed apart in the source
[18] = Fraction unbound in human; format: ADME, organism-based; details: in vivo
[19] = test system: Homo sapiens; assay: Unbound hepatobiliary clearance in human at 120 mg, po; format: ADME, organism-based; details: in vivo
[20] = Systemic clearance in human at 120 mg, po; format: ADME, organism-based; details: in vivo
[21] = Fraction unbound in human at 120 mg, po; format: ADME, organism-based; details: in vivo
[22] = clinical; details: human, in vivo, po
[23] = Systemic clearance in psychiatric patient treated with clozapine; format: ADME, organism-based; details: human, in vivo
[24] = Fraction unbound in psychiatric patient treated with clozapine; format: ADME, organism-based; details: human, in vivo
[25] = species on record: Homo sapiens; assay: Unbound renal clearance in psychiatric patient treated with clozapine; format: ADME, organism-based, Kidney; details: in vivo
[26] = species on record: Homo sapiens; assay: Unbound hepatobiliary clearance in psychiatric patient treated with clozapine; format: ADME, organism-based; details: in vivo
[27] = Systemic clearance in human; format: ADME, organism-based; details: in vivo
[28] = test system: Homo sapiens; assay: Unbound renal clearance in human at 4 mg, po twice daily for 8 days; format: ADME, organism-based, Kidney; details: in vivo, 192 h
[29] = Systemic clearance in human at 4 mg, po twice daily for 8 days; format: ADME, organism-based; details: in vivo
[30] = test system: Homo sapiens; assay: Unbound hepatobiliary clearance in human at 4 mg, po twice daily for 8 days; format: ADME, organism-based; details: in vivo, 192 h

CNCCN1C(=O)[C@H](OC(C)=O)[C@H](c2ccc(OC)cc2)Sc2ccccc21
CL free [1]: 25 mL/min/kg

NC(=O)C(c1ccccc1)(c1ccccc1)[C@@H]1CCN(CCc2ccc3c(c2)C(O)CO3)C1 (stereo not given in full)
CL free [2]: 60 mL/min/kg
CL free [3]: 47 mL/min/kg

CCOc1cc([C@@H](CS(C)(=O)=O)N2C(=O)c3cccc(NC(C)=O)c3C2=O)ccc1OC
pKa [4]: 9.8

Cc1c(O)cccc1C(=O)N[C@@H](CSc1ccccc1)[C@H](O)CN1C[C@H]2CCCC[C@H]2C[C@H]1C(=O)NC(C)(C)C
pKa [4]: 8.57

CN1CC(=O)N2[C@H](c3ccc4c(c3)OCO4)c3[nH]c4ccccc4c3C[C@@H]2C1=O
pKa [4]: 9.87

COc1cccc(C2(O)CCCCC2CN(C)C)c1 (racemic) [TRAMADOL]
pKa [4]: 10

O[C@H](CNC[C@@H](O)[C@H]1CCc2cc(F)ccc2O1)[C@@H]1CCc2cc(F)ccc2O1 (relative stereo)
pKa [4]: 14

CC(C)NCC(O)COc1ccc(O)c2ccccc12 (stereo not given) [4-HYDROXYPROPRANOLOL SULFATE]
CL free [5]: 5 mL/min/kg
clearance [6]: 66 mL/min/kg
CL free [7]: 248 mL/min/kg
fraction unbound [8]: 0.26

CN(C)CCCN1c2ccc(O)cc2Sc2ccc(Cl)cc21 [7-HYDROXYCHLORPROMAZINE]
fraction unbound [9]: 0.015
clearance [10]: 6.1 mL/min/kg
CL free [11]: 400 mL/min/kg
CL free [12]: 6 mL/min/kg

Clc1ccc2c(c1)C(N1CCNCC1)=Nc1ccccc1O2 [AMOXAPINE]
pKa [4]: 11.2

COc1ccc(-n2nc(C(N)=O)c3c2C(=O)N(c2ccc(N4CCCCC4=O)cc2)CC3)cc1 [APIXABAN]
pKa [4]: 8.56

COc1ccc(CCN2CCC(Nc3nc4ccccc4n3Cc3ccc(F)cc3)CC2)cc1 [ASTEMIZOLE]
pKa [4]: 10.1

CNCC[C@@H](Oc1ccccc1C)c1ccccc1 [ATOMOXETINE]
pKa [4]: 10.3

COc1ccccc1Oc1c(NS(=O)(=O)c2ccc(C(C)(C)C)cc2)nc(-c2ncccn2)nc1OCCO [BOSENTAN]
pKa [4]: 8.36

CN(Cc1cc(Br)cc(Br)c1N)C1CCCCC1 [BROMHEXINE]
pKa [4]: 15.1

CCc1cccc2cc(C(O)CNC(C)(C)C)oc12 (stereo not given) [BUFURALOL]
pKa [4]: 14.3

CC(NC(C)(C)C)C(=O)c1cccc(Cl)c1 (stereo not given) [BUPROPION]
pKa [4]: 15.4

O=C1CC2(CCCC2)CC(=O)N1CCCCN1CCN(c2ncccn2)CC1 [BUSPIRONE]
clearance [13]: 28 mL/min/kg
pKa [4]: 12.5

Cc1ccc(-c2cc(C(F)(F)F)nn2-c2ccc(S(N)(=O)=O)cc2)cc1 [CELECOXIB]
pKa [4]: 14.2

COCc1c(C(C)C)nc(C(C)C)c(/C=C/[C@@H](O)C[C@@H](O)CC(=O)O)c1-c1ccc(F)cc1 [CERIVASTATIN]
pKa [4]: 14.4

CN(C)CCCN1c2ccccc2Sc2ccc(Cl)cc21 [CHLORPROMAZINE]
clearance [14]: 18.3 mL/min/kg
Fu [15]: 0.0013
CL free [16]: 14000 mL/min/kg
CL free [17]: 1 mL/min/kg

COc1ccc2c3c1O[C@H]1[C@@H](O)C=C[C@H]4[C@@H](C2)N(C)CC[C@@]341 [CODEINE]
pKa [4]: 9.48

NC(=O)C(c1ccccc1)(c1ccccc1)[C@@H]1CCN(CCc2ccc3c(c2)CCO3)C1 [DARIFENACIN]
fraction unbound [18]: 0.02
pKa [4]: 13.5

Clc1ccc2c(c1)CCc1cccnc1C2=C1CCNCC1 [DESLORATADINE]
pKa [4]: 9.27

COc1ccc2c(c1)[C@]13CCCC[C@@H]1[C@H](C2)N(C)CC3 [DEXTROMETHORPHAN]
pKa [4]: 10.1

COc1ccc([C@@H]2Sc3ccccc3N(CCN(C)C)C(=O)[C@@H]2OC(C)=O)cc1 [DILTIAZEM]
CL free [19]: 48 mL/min/kg
CL/F [20]: 12 mL/min/kg
fraction unbound [21]: 0.25

O=C(O[C@@H]1C[C@@H]2C[C@H]3C[C@H](C1)N2CC3=O)c1c[nH]c2ccccc12 [DOLASETRON]
pKa [4]: 14.6

CNCC[C@H](Oc1cccc2ccccc12)c1cccs1 [DULOXETINE]
pKa [4]: 9.97

O=C1Nc2ccc(Cl)cc2[C@@](C#CC2CC2)(C(F)(F)F)O1 [EFAVIRENZ]
pKa [4]: 7.18

CN1CCN(c2ccccc2/C=C2\SCCN(c3ccc(Cl)c(Cl)c3)C2=O)CC1 [ELZASONAN]
pKa [4]: 11.5

COc1ccc(C(=O)Nc2ccccc2CCC2CCCCN2C)cc1 (stereo not given) [ENCAINIDE]
pKa [4]: 8.34

C#Cc1cccc(Nc2ncnc3cc(OCCOC)c(OCCOC)cc23)c1 [ERLOTINIB]
pKa [4]: 13.9

O=C(NCC1CCCCN1)c1cc(OCC(F)(F)F)ccc1OCC(F)(F)F (stereo not given) [FLECAINIDE]
pKa [4]: 9.28

CC(C)C(=O)Nc1ccc([N+](=O)[O-])c(C(F)(F)F)c1 [FLUTAMIDE]
CL/F [22]: > 600 mL/min/kg
pKa [4]: 12.9

CN1C2CCCC1CC(NC(=O)c1nn(C)c3ccccc13)C2 (stereo not given) [GRANISETRON]
pKa [4]: 8.9

CCc1cc2c(cc1CC)CC(NC[C@H](O)c1ccc(O)c3[nH]c(=O)ccc13)C2 [INDACATEROL]
pKa [4]: 14.6

CCC(C)n1ncn(-c2ccc(N3CCN(c4ccc(OCC5COC(Cn6cncn6)(c6ccc(Cl)cc6Cl)O5)cc4)CC3)cc2)c1=O (stereo not given) [ITRACONAZOLE]
pKa [4]: 15

O=C(c1ccc(F)cc1)C1CCN(CCn2c(=O)[nH]c3ccccc3c2=O)CC1 [KETANSERIN]
pKa [4]: 14.1

Cc1c(OCC(F)(F)F)ccnc1C[S+]([O-])c1nc2ccccc2[nH]1 (stereo not given) [LANSOPRAZOLE]
pKa [4]: 11.2

Cc1ncc2n1-c1ccc(Cl)cc1C(c1ccccc1F)=NC2 [MIDAZOLAM]
pKa [4]: 13.6

CC(C)(O)c1ccccc1CC[C@@H](SCC1(CC(=O)O)CC1)c1cccc(/C=C/c2ccc3ccc(Cl)cc3n2)c1 [MONTELUKAST]
pKa [4]: 15.9

Clc1ccc2c(c1)N=C(N1CCNCC1)c1ccccc1N2 [N-DESMETHYLCLOZAPINE]
clearance [23]: 0.6 mL/min/kg
fraction unbound [24]: 0.097
CL free [25]: 5 mL/min/kg
CL free [26]: 1.2 mL/min/kg

CCn1cc(C(=O)O)c(=O)c2ccc(C)nc21 [NALIDIXIC ACID]
pKa [4]: 13

CCc1nn(CCCN2CCN(c3cccc(Cl)c3)CC2)c(=O)n1CCOc1ccccc1 [NEFAZODONE]
pKa [4]: 13.8

CNCCC=C1c2ccccc2CCc2ccccc21 [NORTRIPTYLINE]
pKa [4]: 13.9

COc1ccc2[nH]c([S+]([O-])Cc3ncc(C)c(OC)c3C)nc2c1 (stereo not given) [OMEPRAZOLE]
pKa [4]: 13.2

CC(C)CCC(=O)CC1c2ccccc2C(=O)N1c1ccc2ccc(Cl)nc2n1 (stereo not given) [PAGOCLONE]
pKa [4]: 15

COc1ccnc(C[S+]([O-])c2nc3ccc(OC(F)F)cc3[nH]2)c1OC (stereo not given) [PANTOPRAZOLE]
pKa [4]: 7.69

Fc1ccc([C@@H]2CCNC[C@H]2COc2ccc3c(c2)OCO3)cc1 [PAROXETINE]
pKa [4]: 10.3

CCc1ccc(CCOc2ccc(CC3SC(=O)NC3=O)cc2)nc1 (stereo not given) [PIOGLITAZONE]
pKa [4]: 13.7

O=C(C1CCCCC1)N1CC(=O)N2CCc3ccccc3C2C1 (stereo not given) [PRAZIQUANTEL]
pKa [4]: 15

CC(C)NCC(O)COc1cccc2ccccc12 (stereo not given) [PROPRANOLOL]
fraction unbound [18]: 0.15
clearance [27]: 20 mL/min/kg

OCCOCCN1CCN(C2=Nc3ccccc3Sc3ccccc32)CC1 [QUETIAPINE]
pKa [4]: 11.2

COc1ccccc1OCC(O)CN1CCN(CC(=O)Nc2c(C)cccc2C)CC1 (stereo not given) [RANOLAZINE]
pKa [4]: 9.59

CCOc1cc(CC(=O)N[C@@H](CC(C)C)c2ccccc2N2CCCCC2)ccc1C(=O)O [REPAGLINIDE]
pKa [4]: 14.8

CN(CCOc1ccc(CC2SC(=O)NC2=O)cc1)c1ccccn1 (stereo not given) [ROSIGLITAZONE]
pKa [4]: 10.3

N#CC[C@H](C1CCCC1)n1cc(-c2ncnc3[nH]ccc23)cn1 [RUXOLITINIB]
pKa [4]: 14.9

C[C@H](NC(=O)C(C)(C)Oc1ccc(C(F)(F)F)cn1)[C@@H](Cc1ccc(Cl)cc1)c1cccc(C#N)c1 [TARANABANT]
pKa [4]: 15.1

CC(C)(C)c1ccc(C(O)CCCN2CCC(C(O)(c3ccccc3)c3ccccc3)CC2)cc1 (stereo not given) [TERFENADINE]
pKa [4]: 15

C#C[C@]1(O)CC[C@H]2[C@@H]3[C@H](C)CC4=C(CCC(=O)C4)[C@H]3CC[C@@]21C [TIBOLONE]
pKa [4]: 15

CCCSc1nc(N[C@@H]2C[C@H]2c2ccc(F)c(F)c2)c2nnn([C@@H]3C[C@H](OCCO)[C@@H](O)[C@H]3O)c2n1 [TICAGRELOR]
pKa [4]: 14.3

Cc1ccc(O)c([C@H](CCN(C(C)C)C(C)C)c2ccccc2)c1 [TOLTERODINE]
CL free [28]: 1 mL/min/kg
CL/F [29]: 44 mL/min/kg
CL free [30]: 1190 mL/min/kg
pKa [4]: 14.7

Cc1onc(-c2ccccc2)c1-c1ccc(S(N)(=O)=O)cc1 [VALDECOXIB]
pKa [4]: 13.1
